Test results from patent US10213394B1, “Composition and method for treating neurological disease” (Osmotica Kereskedelmi és Szolgáltató Korlátolt Felelõsségû …, priority 2018, dated 2019).
Structures can show the parent of a compound that is named as a salt.

Experiments:
plasma proteins = settings: concentration range of 0.1 to 2.0 μg/mL; cited from earlier work
[1] = cited from earlier work
[2] = cited from earlier work; remark: listed apart in the source
[3] = Solubility of amantadine HCl in water; type: physicochemical; settings: 160 mg, 240 mg and 320 mg of amantadine HCl

solubility in water [3]	SMILES	bound to plasma proteins (plasma proteins) [%]	average elimination half-life ([1]; patients on chronic maintenance hemodialysis)	apparent plasma clearance ([1]; single dose 25 to 75 mg, 7 healthy elderly male volunteers, range 0.06 to 0.17) [L/h/kg]	half-life ([1]; single dose 25 to 75 mg, 7 healthy elderly male volunteers, range 20 to 41) [h]	volume of distribution ([2]; after intravenous administration) [L/kg]	reduction of renal clearance of amantadine ([2]; coadministration of quinine or quinidine)	administered dose excreted unchanged in urine ([2]; in vivo)	metabolism as share of total clearance ([2]; in vivo)
	NC12CC3CC(CC(C3)C1)C2 [Amantadine, amantadine]	67	eight days	0.10 ± 0.04	29 ± 7	3 to 8	about 30%	approximately 85%	5-15%
soluble in 250 mL water	NC12CC3CC(CC(C3)C1)C2 [amantadine HCl, Amantadine Hydrochloride]								
